# Target: T1, human PTH1 receptor (Homo sapiens, UniProt Q03431)
# T1 sequence (Q03431 27-593): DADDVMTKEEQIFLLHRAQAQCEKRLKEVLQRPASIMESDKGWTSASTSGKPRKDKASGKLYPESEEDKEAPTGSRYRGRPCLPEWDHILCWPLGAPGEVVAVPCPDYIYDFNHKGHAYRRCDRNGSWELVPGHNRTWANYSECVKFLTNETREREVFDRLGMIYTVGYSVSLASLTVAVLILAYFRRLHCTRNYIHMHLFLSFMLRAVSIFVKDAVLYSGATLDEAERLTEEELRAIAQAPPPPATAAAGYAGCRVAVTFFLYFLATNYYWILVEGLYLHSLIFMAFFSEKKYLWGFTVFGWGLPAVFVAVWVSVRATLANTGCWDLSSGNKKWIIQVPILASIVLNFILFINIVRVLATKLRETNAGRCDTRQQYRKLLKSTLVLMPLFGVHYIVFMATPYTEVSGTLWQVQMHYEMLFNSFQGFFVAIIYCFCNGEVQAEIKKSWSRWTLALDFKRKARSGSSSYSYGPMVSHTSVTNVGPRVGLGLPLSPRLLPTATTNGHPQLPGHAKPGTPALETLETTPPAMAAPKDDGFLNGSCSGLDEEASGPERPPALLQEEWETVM
# Test: In vitro cAMP signal activity in HKRK-B7 cells (LLC-PK1 cells overexpressing the human PTH1 receptor)
# Type: cell-based
# Conditions: HKRK-B7 cells; compound at 1×10^−3 M; cAMP produced as percentage of that produced by hPTH(1-34) at 100 nM
row,Compound,cAMP production activity (%)
1,"CC(=O)N(CCOCCO)c1cc(C)c(/C=C/S(=O)(=O)N2CCC3(CC2)N=C(C2CCC(CCC(F)(F)F)CC2)NC3=O)c(C)c1 (stereo not shown) [Compound 699, N-[3,5-Dimethyl-4-((E)-2-{4-oxo-2-[4-(3,3,3-trifluoro-propyl)-cyclohexyl]-1,3,8-triaza-spiro[4.5]dec-1-ene-8-sulfonyl}-vinyl)-phenyl]-N-[2-(2-hydroxy-ethoxy)-ethyl]-acetamide]",101%
2,"CCCCCCCCCC1=NC2(CCN(S(=O)(=O)/C=C/c3ccc(N(CCOCCO)C(C)=O)cc3C)CC2)C(=O)N1 [Compound 700, N-[2-(2-Hydroxy-ethoxy)-ethyl]-N-{3-methyl-4-[(E)-2-(2-nonyl-4-oxo-1,3,8-triaza-spiro[4.5]dec-1-ene-8-sulfonyl)-vinyl]-phenyl}-acetamide]",121%
3,"CCCCCCCCCC1=NC2(CCN(S(=O)(=O)/C=C/c3c(C)cc(N(CCO)C(C)=O)cc3C)CC2)C(=O)N1 [Compound 701, N-{3,5-dimethyl-4-[(E)-2-(2-nonyl-4-oxo-1,3,8-triaza-spiro[4.5]dec-1-ene-8-sulfonyl)-vinyl]-phenyl}-N-(2-hydroxy-ethyl)-acetamide]",140%
4,"O=C1NC(C2CCCCC2)=NC12CCN(S(=O)(=O)/C=C/c1ccc3c(ccn3C[C@H](O)CO)c1)CC2 [Compound 702, 2-Cyclohexyl-8-{(E)-2-[1-((S)-2,3-dihydroxy-propyl)-1H-indol-5-yl]-ethenesulfonyl}-1,3,8-triaza-spiro[4.5]dec-1-en-4-one]",84%
5,"O=C1NC(C2CCC(CCC(F)(F)F)CC2)=NC12CCN(S(=O)(=O)/C=C/c1cccc3c1ccn3CCOC[C@@H](O)CO)CC2 (stereo partly drawn) [Compound 704, 8-((E)-2-{1-[2-((S)-2,3-Dihydroxy-propoxy)-ethyl]-1H-indol-4-yl}-ethenesulfonyl)-2-[4-(3,3,3-trifluoro-propyl)-cyclohexyl]-1,3,8-triaza-spiro[4.5]dec-1-en-4-one]",68%
6,"Cc1cc(OC[C@H](O)[C@@H](O)CO)cc(C)c1/C=C/S(=O)(=O)N1CCC2(CC1)N=C(C1CCC(CCC(F)(F)F)CC1)NC2=O (stereo partly drawn) [Compound 705, 8-{(E)-2-[2,6-dimethyl-4-((2S,3S)-2,3,4-trihydroxy-butoxy)-phenyl]-ethenesulfonyl}-2-[4-(3,3,3-trifluoro-propyl)-cyclohexyl]-1,3,8-triaza-spiro[4.5]dec-1-en-4-one]",76%
7,"O=C1NC(C2CCC(CCC(F)(F)F)CC2)=NC12CCN(S(=O)(=O)/C=C/c1cccc3c1ccn3CCOC[C@H](O)[C@@H](O)CO)CC2 (stereo partly drawn) [Compound 706, 2-[4-(3,3,3-trifluoro-propyl)-cyclohexyl]-8-((E)-2-{1-[2-((2S,3S)-2,3,4-trihydroxy-butoxy)-ethyl]-1H-indol-4-yl}-ethenesulfonyl)-1,3,8-triaza-spiro[4.5]dec-1-en-4-one]",90%
8,"CC(=O)N(C[C@H](O)CO)c1cc(C)c(/C=C/S(=O)(=O)N2CCC3(CC2)N=C(CCCCCCCCC(F)(F)F)NC3=O)c(C)c1 [Compound 707, N—((S)-2,3-Dihydroxy-propyl)-N-(3,5-dimethyl-4-{(E)-2-[4-oxo-2-(9,9,9-trifluoro-nonyl)-1,3,8-triaza-spiro[4.5]dec-1-ene-8-sulfonyl]-vinyl}-phenyl)-acetamide]",124%
9,"Cc1cc(CN(CCO)C(=O)OC(C)(C)C)ccc1/C=C/S(=O)(=O)N1CCC2(CC1)N=C(C1CCCCC1)NC2=O [Compound 708, {4-[(E)-2-(2-Cyclohexyl-4-oxo-1,3,8-triaza-spiro[4.5]dec-1-ene-8-sulfonyl)-vinyl]-3-methyl-benzyl}-(2-hydroxy-ethyl)-carbamic acid tert-butyl ester]",38%
10,"CC(=O)N(c1cc(C)c(/C=C/S(=O)(=O)N2CCC3(CC2)N=C(C2CCCCC2)NC3=O)c(C)c1)C1CCC(O)CC1 (stereo not shown) [Compound 709, N-{4-[(E)-2-(2-cyclohexyl-4-oxo-1,3,8-triaza-spiro[4.5]dec-1-ene-8-sulfonyl)-vinyl]-3,5-dimethyl-phenyl}-N-(4-hydroxy-cyclohexyl)-acetamide]",58%
11,"Cc1cc(N2C(=O)CC[C@@H]2COCCO)cc(C)c1/C=C/S(=O)(=O)N1CCC2(CC1)N=C(C1CCCCC1)NC2=O [Compound 710, 2-cyclohexyl-8-((E)-2-{4-[(R)-2-(2-hydroxy-ethoxymethyl)-5-oxo-pyrrolidin-1-yl]-2,6-dimethyl-phenyl}-ethenesulfonyl)-1,3,8-triaza-spiro[4.5]dec-1-en-4-one]",76%
12,"Cc1cc(N(CCO)C(=O)C(C)C)ccc1/C=C/S(=O)(=O)N1CCC2(CC1)N=C(c1cccc(OC(F)(F)F)c1)NC2=O [Compound 711, N-(2-Hydroxy-ethyl)-N-(3-methyl-4-{(E)-2-[4-oxo-2-(3-trifluoromethoxy-phenyl)-1,3,8-triaza-spiro[4.5]dec-1-ene-8-sulfonyl]-vinyl}-phenyl)-isobutylamide]",64%
13,"Cc1cc(N2C(=O)C(C)(C)C[C@@H]2CO)cc(C)c1/C=C/S(=O)(=O)N1CCC2(CC1)N=C(c1cccc(OC(F)(F)F)c1)NC2=O [Compound 712, 8-{(E)-2-[4-((R)-5-hydroxymethyl-3,3-dimethyl-2-oxo-pyrrolidin-1-yl)-2,6-dimethyl-phenyl]-ethenesulfonyl}-2-(3-trifluoromethoxy-phenyl)-1,3,8-triaza-spiro[4.5]dec-1-en-4-one]",16%

# The remaining lines, values ahead:
row,cAMP production activity (%),Compound
1,55%,"Cc1cc(N2C(=O)C(C)C[C@@H]2CO)cc(C)c1/C=C/S(=O)(=O)N1CCC2(CC1)N=C(c1cccc(OC(F)(F)F)c1)NC2=O (stereo partly drawn) [Compound 713, 8-{(E)-2-[4-((R)-5-hydroxymethyl-3-methyl-2-oxo-pyrrolidin-1-yl)-2,6-dimethyl-phenyl]-ethenesulfonyl}-2-(3-trifluoromethoxy-phenyl)-1,3,8-triaza-spiro[4.5]dec-1-en-4-one]"
2,36%,"Cc1cc(N2C(=O)N(CCO)C(C)(C)C2=O)cc(C)c1/C=C/S(=O)(=O)N1CCC2(CC1)N=C(c1cccc(OC(F)(F)F)c1)NC2=O [Compound 714, 3-(3,5-dimethyl-4-{(E)-2-[4-oxo-2-(3-trifluoromethoxy-phenyl)-1,3,8-triaza-spiro[4.5]dec-1-ene-8-sulfonyl]-vinyl}-phenyl)-1-(2-hydroxy-ethyl)-5,5-dimethyl-imidazolidine-2,4-dione]"
3,20%,"Cc1cc(N(C2CCC(O)CC2)S(C)(=O)=O)cc(C)c1/C=C/S(=O)(=O)N1CCC2(CC1)N=C(c1cccc(OC(F)(F)F)c1)NC2=O (stereo not shown) [Compound 715, N-(3,5-dimethyl-4-{(E)-2-[4-oxo-2-(3-trifluoromethoxy-phenyl)-1,3,8-triaza-spiro[4.5]dec-1-ene-8-sulfonyl]-vinyl}-phenyl)-N-(4-hydroxy-cyclohexyl)-methane sulfonamide]"
4,62%,"CCCCC1CCC(C2=NC3(CCN(S(=O)(=O)/C=C/c4c(C)cc(N(CCOCCO)C(C)=O)cc4C)CC3)C(=O)N2)CC1 (stereo not shown) [Compound 716, N-(4-{(E)-2-[2-(4-Butyl-cyclohexyl)-4-oxo-1,3,8-triaza-spiro[4.5]dec-1-ene-8-sulfonyl]-vinyl}-3,5-dimethyl-phenyl)-N-[2-(2-hydroxy-ethoxy)-ethyl]-acetamide]"
5,111%,"CC(=O)N(CCO)c1cc(C)c(/C=C/S(=O)(=O)N2CCC3(CC2)N=C(c2cccc(OC(F)(F)F)c2)NC3=O)cc1F [Compound 717, N-(2-Fluoro-5-methyl-4-{(E)-2-[4-oxo-2-(3-trifluoromethoxy-phenyl)-1,3,8-triaza-spiro[4.5]dec-1-ene-8-sulfonyl]-vinyl}-phenyl)-N-(2-hydroxy-ethyl)-acetamide]"
6,74%,"CC(=O)N(CCO)c1cc(C)c(/C=C/S(=O)(=O)N2CCC3(CC2)N=C(c2ccc(F)c(C(F)(F)F)c2)NC3=O)c(C)c1 [Compound 718, N-(4-{(E)-2-[2-(4-Fluoro-3-trifluoromethyl-phenyl)-4-oxo-1,3,8-triaza-spiro[4.5]dec-1-ene-8-sulfonyl]-vinyl}-3,5-dimethyl-phenyl)-N-(2-hydroxy-ethyl)-acetamide]"
7,77%,"Cc1cc(N(CCO)S(C)(=O)=O)ccc1/C=C/S(=O)(=O)N1CCC2(CC1)N=C(c1cccc(OC(F)(F)F)c1)NC2=O [Compound 719, N-(2-Hydroxy-ethyl)-N-(3-methyl-4-{(E)-2-[4-oxo-2-(3-trifluoromethoxy-phenyl)-1,3,8-triaza-spiro[4.5]dec-1-ene-8-sulfonyl]-vinyl}-phenyl)-methanesulfonamide]"
8,82%,"CCCCCCCCCC1=NC2(CCN(S(=O)(=O)CCc3ccc(N(CCO)S(C)(=O)=O)cc3C)CC2)C(=O)N1 [Compound 720, N-(2-Hydroxy-ethyl)-N-{3-methyl-4-[2-(2-nonyl-4-oxo-1,3,8-triaza-spiro[4.5]dec-1-ene-8-sulfonyl)-ethyl]-phenyl}-methanesulfonamide]"
9,92%,"CC(=O)N(CCO)c1ccc(CCS(=O)(=O)N2CCC3(CC2)N=C(c2ccc(F)c(C(F)(F)F)c2)NC3=O)c(C)c1 [Compound 721, N-(4-{2-[2-(4-Fluoro-3-trifluoromethyl-phenyl)-4-oxo-1,3,8-triaza-spiro[4.5]dec-1-ene-8-sulfonyl]-ethyl}-3-methyl-phenyl)-N-(2-hydroxy-ethyl)-acetamide]"

# Source: patent US9169254B2, “Spiroimidazolone derivative” (Chugai Seiyaku Kabushiki Kaisha, priority 2009, dated 2015)
